Measurements: US8518911B2, “Pyrazolo[1,5-a]pyridines as MARK inhibitors” (Merck Sharp & Dohme Corp., priority 2008, dated 2013)
pIC50: −log10 of the molar value.

Target: T1, recombinant MARK3 enzyme (Homo sapiens, UniProt P27448)
T1 construct: purchased University of Dundee
Assay: MARK 3 Assay (HTRF, Cdc25C biotinylated peptide substrate)
Assay type: biochemical
Conditions: MARK3, 10 μM ATP, 1 μM peptide substrate, 2 hours at 25° C.
Protocol: MARK3 activity was assayed in vitro using a Cdc25C biotinylated peptide substrate (Cell Signalling Technologies). The phosphopeptide product was quantitated using a Homogenous Time-Resolved Fluorescence (HTRF) assay system (Park et al., 1999, Anal. Biochem. 269:94-104). The reaction mixture contained 50 mM HEPES/Tris-HCl, pH 7.4; […], 5 mM MgCl2, 0.2 mM NaVO4, 5 mM β-glycerol phosphate, 0.1% Tween-20, 2 mM dithiothreitol, 0.1% BSA, 10 μM ATP, 1 μM peptide substrate, and 10 nM recombinant MARK3 enzyme (University of Dundee) in a final volume of 12 μL. The buffer additionally contained protease inhibitor cocktail (Roche EDTA-free, 1 tab per 50 ml). The kinase reaction was incubated for 2 hours at 25° C., and then terminated with 3 μl Stop/Detection Buffer (50 mM HEPES, pH 7.0, 16.6 mM EDTA, 0.5M KF, 0.1% Tween-20, 0.1% BSA, 2 μg/ml SLX^ent 665 (CISBIO), and 2 μg/mL Eu^3+ cryptate label antibody (CISBIO)). The reaction was allowed to equilibrate overnight at 0° C., and relative fluorescent units were read on an HTRF enabled plate reader (e.g. TECAN GENios Pro).
Inhibitor compounds were assayed in the reaction described above to determine compound IC50s. Aliquots of compound dissolved in DMSO were added to the reaction wells in a third-log dilution series covering a range of 1 nM to 10 μM. Relative phospho substrate formation, read as HTRF fluorescence units, was measured over the range of compound concentrations and a titration curve generated.

T1 sequence (P27448 whole entry, species assumed): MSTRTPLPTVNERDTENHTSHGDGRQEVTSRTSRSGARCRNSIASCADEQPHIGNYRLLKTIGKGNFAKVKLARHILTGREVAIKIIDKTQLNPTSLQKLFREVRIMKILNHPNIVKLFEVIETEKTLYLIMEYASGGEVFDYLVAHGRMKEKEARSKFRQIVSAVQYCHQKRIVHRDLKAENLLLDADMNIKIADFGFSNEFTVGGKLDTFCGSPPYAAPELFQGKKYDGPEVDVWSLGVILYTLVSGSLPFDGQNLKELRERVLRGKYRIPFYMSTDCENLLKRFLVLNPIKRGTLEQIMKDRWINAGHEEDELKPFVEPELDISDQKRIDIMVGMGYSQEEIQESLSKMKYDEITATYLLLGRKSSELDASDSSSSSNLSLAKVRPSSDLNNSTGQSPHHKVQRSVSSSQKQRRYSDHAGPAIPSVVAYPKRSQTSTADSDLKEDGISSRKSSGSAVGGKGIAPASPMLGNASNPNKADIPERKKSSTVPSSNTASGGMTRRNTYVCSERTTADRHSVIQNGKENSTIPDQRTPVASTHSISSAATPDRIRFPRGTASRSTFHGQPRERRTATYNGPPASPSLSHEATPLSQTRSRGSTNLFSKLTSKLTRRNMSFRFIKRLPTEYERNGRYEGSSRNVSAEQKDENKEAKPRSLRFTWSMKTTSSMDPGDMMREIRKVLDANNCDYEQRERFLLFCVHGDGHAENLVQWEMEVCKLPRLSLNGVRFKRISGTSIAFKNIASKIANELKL

Row | SMILES | pIC50
1 | N[C@@H]1CCCC(F)(F)[C@@H]1NC(=O)c1cc(-c2cnn3ccccc23)c(Cl)s1 [Example 206, N-[(1R,6R)-6-amino-2,2-difluorocyclohexyl]-5-chloro-4-pyrazolo[1,5-a]pyridin-3-yl-2-thiophenecarboxamide] | 7.72
2 | C=C(C)c1ccc2c(-c3csc(C(=O)N[C@@H]4[C@@H](N)CCCC4(F)F)n3)cnn2c1 [Example 157, N-[(1R,6S)-6-Amino-2,2-difluorocyclohexyl]-4-(6-isopropenylpyrazolo[1,5-a]pyridin-3-yl)-1,3-thiazole-2-carboxamide] | 9.30
3 | N[C@@H]1CCCC(F)(F)[C@@H]1NC(=O)c1nc(-c2cnn3cc(-c4ccc(F)cc4)ccc23)c(Cl)s1 [Example 1] | 7.68
4 | N[C@H]1CCCC(F)(F)[C@@H]1NC(=O)c1nc(-c2cnn3ccccc23)c(Cl)s1 [Example 7, N-[(1R,6S)-6-Amino-2,2-difluorocyclohexyl]-5-chloro-4-pyrazolo[1,5-a]pyridin-3-yl-1,3-thiazole-2-carboxamide] | 8.40
5 | CCc1sc(C(=O)N[C@@H]2[C@@H](N)CCCC2(F)F)cc1-c1cnn2cc(F)ccc12 [Example 170, N-[(1R,6S)-6-Amino-2,2-difluorocyclohexyl]-5-ethyl-4-(6-fluoropyrazolo[1,5-a]pyridin-3-yl)thiophene-2-carboxamide] | 7.54
6 | Cc1sc(C(=O)NC(CN)c2ccccc2)nc1-c1cnn2cc(-c3cnn(C)c3)ccc12 (stereo not drawn) [Example 182, N-(2-Amino-1-phenylethyl)-5-methyl-4-[6-(1-methyl-1H-pyrazol-4-yl)pyrazolo[1,5-a]pyridin-3-yl]-1,3-thiazole-2-carboxamide] | 7.89
